Values of other authors as cited in patent US20210145797A1, “COMPOSITIONS FOR TREATING SKIN” (UNIVERSITY OF FLORIDA RESEARCH FOUNDATION, INCORPORATED, priority 2018, published 2021).

Tested on: herpes simplex
Settings: topical over-the-counter treatment of herpes simplex

CCCCCCCCCCCCCCCCCCCCCCO [N-docosanol]
improvement of time of healing (4.1 days to 2.5 days): 1.5 days | time of healing (median) (from a median of 4.1 days): 2.5 days
